Results taken from ChEMBL document CHEMBL6071133, “Discovery of novel penetrating peptides able to target human leukemia and lymphoma for enhanced PROTAC delivery” (Eur J Med Chem, 2024).
The source made the active and inactive calls. The rule behind the calls is not given here.

Legend:
[1] = Interaction with IMA-PROTAC assessed as induction of formation of micelle cluster with uniform and distinct spherical morphology by transmission electron microscopy; type: physicochemical
[2] = Stability of the compound in fetal bovine serum assessed as parent compound remaining measured after 8 hrs by HPLC-MS analysis; type: ADME, cell-free, Bos taurus; conditions: cattle, read-out: Stability
K562 [3] = assay: Increase in membrane permeability of IMA-PROTAC in human K562 cells assessed as potentiation of IMA-PROTAC-induced Bcr-Abl degradation at PROTAC to compound concentration ratio of 1:3 incubated for 48 hrs in presence of 3 umol/L IMA-PROTAC by western blot analysis; type: functional, cell-based
K562 [4] = assay: Induction of apoptosis in human K562 cells assessed as late apoptotic cells at PROTAC to compound concentration ratio of 1:5 incubated for 48 hrs in presence of 3 umol/L IMA-PROTAC by AnnexinV-FITC/PI staining based flow cytometry (reference value: 0.01%); type: functional
[5] = Drug uptake in human THP-1 cells assessed as increase in fluorescence intensity at 10 umol/L incubated for 2 hrs by cell imaging based fluorescence microscopic analysis; type: ADME; conditions: thp-1, 2 h, 10 µM, dose 10 µmol/L
K562 [6] = assay: Induction of apoptosis in human K562 cells assessed as early apoptotic cells at PROTAC to compound concentration ratio of 1:5 incubated for 48 hrs in presence of 3 umol/L IMA-PROTAC by AnnexinV-FITC/PI staining based flow cytometry (reference value: 0.03%); type: functional
[7] = Drug uptake in human K562 cells assessed as fluorescence intensity at 5 umol/L pretreated with endocytosis inhibitor, methyl-beta-cyclodextrin for 0.5 hrs followed by incubation with compound for 2 hrs by FACS analysis; type: ADME, cell-based; conditions: k562, 2 h, 5 µM, dose 5 µmol/L
K562 [8] = assay: Induction of cell cycle arrest in human K562 cells assessed as accumulation of cells at G2/M phase at PROTAC to compound concentration ratio of 1:5 incubated for 48 hrs in presence of 3 umol/L IMA-PROTAC by propidium iodide staining based flow cytometry; type: functional
[9] = Cytotoxicity against human KU812 cells assessed as cell viability at 0.01 to 100 uM incubated for 48 hrs by MTT assay; type: toxicity, cell-based; conditions: dose 0.01-100 µM, read-out: Activity
[10] = Drug uptake in human K562 cells assessed as increase in fluorescence intensity at 5 umol/L measured for 5 to 240 mins by flow cytometry; type: ADME, cell-based; conditions: k562, 5 µM, TDE = time-dependent effect, time 5-240 min, dose 5 µmol/L
[11] = Drug uptake in human K562 cells assessed as membrane permeability by measuring increase in fluorescence intensity at 5 umol/L incubated for 2 hrs by flow cytometry relative to THP-1 cells; type: ADME, cell-based; conditions: k562, 2 h, 5 µM, dose 5 µmol/L
[12] = Drug uptake in human KU812 cells assessed as perinuclear distribution and colocalization with nucleus at 10 umol/L incubated for 2 hrs by confocal laser microscopy; type: ADME, cell-based; conditions: ku812, 2 h, 10 µM, dose 10 µmol/L
[13] = Stability of the compound in fetal bovine serum assessed as parent compound remaining measured after 36 hrs by HPLC-MS analysis; type: ADME, cell-free, Bos taurus; conditions: cattle, read-out: Stability
[14] = Drug uptake in human KU812 cells assessed as increase in fluorescence intensity at 1 to 10 uM incubated for 2 hrs by flow cytometry; type: ADME, cell-based; conditions: ku812, 2 h, dose 1-10 µM
[15] = Cytotoxicity against human CCRF-CEM cells assessed as cell viability at 0.01 to 100 uM incubated for 48 hrs by MTT assay; type: toxicity, cell-based; conditions: dose 0.01-100 µM, read-out: Activity
[16] = Drug uptake in human K562 cells assessed as fluorescence intensity at 5 umol/L pretreated with endocytosis inhibitor, chlorpromazine for 0.5 hrs followed by incubation with compound for 2 hrs by FACS analysis; type: ADME, cell-based; conditions: k562, 2 h, 5 µM, dose 5 µmol/L
[17] = Drug uptake in human CCRF-CEM cells assessed as increase in fluorescence intensity at 5 umol/L measured for 5 to 240 mins by flow cytometry; type: ADME, cell-based; conditions: 5 µM, TDE = time-dependent effect, time 5-240 min, dose 5 µmol/L
[18] = Cytotoxicity against human K562 cells assessed as cell viability at 0.01 to 100 uM incubated for 48 hrs by MTT assay; type: toxicity, cell-based; conditions: dose 0.01-100 µM, read-out: Activity
[19] = Drug uptake in human CCRF-CEM cells assessed as increase in fluorescence intensity at 1 to 10 uM incubated for 2 hrs by flow cytometry; type: ADME, cell-based; conditions: dose 1-10 µM
[20] = Drug uptake in human K562 cells assessed as fluorescence intensity at 5 umol/L pretreated with endocytosis inhibitor, chloroquine for 0.5 hrs followed by incubation with compound for 2 hrs by FACS analysis; type: ADME, cell-based; conditions: k562, 2 h, 5 µM, dose 5 µmol/L
[21] = Increase in membrane permeation of IMA-PROTAC in human K562 cells assessed as increase in intracellular content of IMA-PROTAC incubated for 3 hrs by HPLC-MRM-MS analysis relative to control; type: functional
K562 [22] = assay: Potentiation of IMA-PROTAC-induced cytotoxicity against human K562 cells assessed as inhibition of cell growth at compound: IMA-PROTAC concentration ratio of 5:1 incubated for 48 hrs in presence of 3 umo/L IMA-PROTAC by MTT assay; type: functional, cell-based
[23] = Drug uptake in human K562 cells assessed as increase in fluorescence intensity at 5 umol/L pretreated with endocytosis inhibitor, nystatin for 0.5 hrs followed by incubation with compound for 2 hrs by FACS analysis; type: ADME, cell-based; conditions: k562, 2 h, 5 µM, dose 5 µmol/L
K562 [24] = assay: Induction of apoptosis in human K562 cells assessed as necrotic cells at PROTAC to compound concentration ratio of 1:5 incubated for 48 hrs in presence of 3 umol/L IMA-PROTAC by AnnexinV-FITC/PI staining based flow cytometry (reference value: 0.1%); type: functional
[25] = Drug uptake in human CCRF-CEM cells assessed as perinuclear distribution and colocalization with nucleus at 10 umol/L incubated for 2 hrs by confocal laser microscopy; type: ADME, cell-based; conditions: 10 µM, dose 10 µmol/L
K562 [26] = assay: Potentiation of IMA-PROTAC-induced cytotoxicity against human K562 cells assessed as inhibition of cell growth at compound: IMA-PROTAC concentration ratio of 5:1 incubated for 48 hrs in presence of 10 to 30 umo/L IMA-PROTAC by MTT assay relative to IMA-PROTAC; type: functional
[27] = Drug uptake in human KU812 cells assessed as membrane penetration by measuring increase in fluorescence intensity at 5 umol/L incubated for 2 hrs by flow cytometry relative to C9C; type: ADME, cell-based; conditions: ku812, 2 h, 5 µM, dose 5 µmol/L
K562 [28] = assay: Increase in membrane permeability of IMA-PROTAC in human K562 cells assessed as potentiation of IMA-PROTAC-induced inhibition of STAT5 phosphorylation at PROTAC to compound concentration ratio of 1:3 incubated for 48 hrs in presence of 3 umol/L IMA-PROTAC by western blot analysis; type: functional, cell-based
[29] = Drug uptake in human K562 cells assessed as perinuclear distribution and colocalization with nucleus at 10 umol/L incubated for 2 hrs by confocal laser microscopy; type: ADME, cell-based; conditions: k562, 2 h, 10 µM, dose 10 µmol/L
[30] = Stability of the compound in fetal bovine serum assessed as parent compound remaining measured after 12 hrs by HPLC-MS analysis; type: ADME, cell-free, Bos taurus; conditions: cattle, read-out: Stability
[31] = Drug uptake in human K562 cells assessed as membrane penetration by measuring increase in fluorescence intensity at 5 umol/L incubated for 2 hrs by flow cytometry relative to C9C; type: ADME, cell-based; conditions: k562, 2 h, 5 µM, dose 5 µmol/L

CC(C)C[C@H](NC(=O)[C@H](Cc1csc2ccccc12)NC(=O)[C@@H](Cc1ccccc1)NC(=O)[C@H](Cc1ccccc1)NC(=O)CNC(=O)[C@@H](N)CS)C(=O)N[C@@H](CCCNC(=N)N)C(=O)N[C@@H](CO)C(=O)N[C@@H](CS)C(=O)O
Activity [1]: Not Active | remaining at 8 h [2]: 100% | Activity (K562 [3]): Active | Activity (K562 [4]): 13.98% | Drug uptake [5]: Active | Activity (K562 [6]): 22.82% | Drug uptake [7]: Not Active | Activity (K562 [8]): Active | viability at 48 h, up to 100 µM [9]: > 75% | Drug uptake [10]: Tde | fold change (FC) [11]: 8.8 | Drug uptake [12]: Active | remaining at 36 h [13]: 55% | Drug uptake [14]: Dose-Dependent Effect | viability at 48 h, up to 100 µM [15]: > 75% | Drug uptake [16]: Not Active | Drug uptake [17]: Tde | viability at 48 h, up to 100 µM [18]: > 75% | Drug uptake [19]: Dose-Dependent Effect | Drug uptake [20]: Not Active | fold change (FC) [21]: 1.72 | Activity (K562 [22]): inactive | Drug uptake [23]: Active | Activity (K562 [24]): 0% | Drug uptake [25]: Active | inhibition (INH) (K562 [26]): 20% | fold change (FC) [27]: 4.45 | Activity (K562 [28]): Active | Drug uptake [29]: Active | remaining at 12 h [30]: 80% | fold change (FC) [31]: 4.03
